Data on one substance can be found in publication PMC4249762 (Nature cell biology, 2014).

Holding throughout (format): biochemical
The target of one experiment is cathepsin S (Homo sapiens, UniProt P25774). As to the kind of experiment: fluorimetric hydrolysis of Z-Leu-Arg-AMC by purified enzyme, pH […].
The target of another experiment is cathepsin B (Homo sapiens, UniProt P07858). As to the kind of experiment: enzyme selectivity assay with peptide substrate.
The target of a further experiment is mouse cathepsin S (Mus musculus, UniProt O70370). Put plainly: fluorimetric hydrolysis of Z-Leu-Arg-AMC by purified enzyme, pH […].

Chain of cathepsin S (P25774 115-331): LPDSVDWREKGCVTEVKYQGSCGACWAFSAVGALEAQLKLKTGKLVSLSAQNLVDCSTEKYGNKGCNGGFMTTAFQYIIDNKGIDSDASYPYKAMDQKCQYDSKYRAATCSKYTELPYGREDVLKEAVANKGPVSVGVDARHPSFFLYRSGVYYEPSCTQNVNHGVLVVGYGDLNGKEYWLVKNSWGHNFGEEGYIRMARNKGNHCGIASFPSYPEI

The Ki is a measure of affinity in units of concentration, obtained from inhibition or displacement. High values mean a looser hold on the target, low ones a stronger hold on the target. For the substance VBY-999, the Ki at cathepsin S was 0.29 nM; on cathepsin B it was 700 nM; on mouse cathepsin S, 0.69 nM.
